Laboratory results published in the NIST ThermoML archive (doi:10.1021/je0500633).

Assays:
[1] = xn = mol fraction of the nth substance listed; conditions: 101.33 kPa, Liquid; for viscosity: Falling or rolling sphere viscometry
[2] = 101.33 kPa, Liquid; for viscosity: Falling or rolling sphere viscometry

CCCO [propan-1-ol] + CCCCCC(=O)OCC
[1], x2 = 0
Conditions | mass density [kg/m3] | viscosity [mPa·s]
293.15 K | 803.64 | 2.188
303.15 K | 795.48 | 1.713
313.15 K | 787.02 | 1.378

CO [methanol] + CCOC(=O)C(C)CC
[1], x2 = 0
Conditions | mass density [kg/m3] | viscosity [mPa·s]
293.15 K | 791.08 | 0.577
303.15 K | 781.95 | 0.512
313.15 K | 772.01 | 0.447

CCO [ethanol]
[2]
Conditions | mass density [kg/m3] | viscosity [mPa·s]
293.15 K | 788.24 | 1.16
303.15 K | 780.73 | 0.968
313.15 K | 771.98 | 0.81

CCOC(=O)C(C)CC (configuration not stated) [ethyl 2-methylbutanoate] + CO
[1], x1 = 1
Conditions | mass density [kg/m3] | viscosity [mPa·s]
293.15 K | 869.73 | 0.831
303.15 K | 861.48 | 0.723
313.15 K | 853.41 | 0.635

CCOC(=O)C(C)CC (configuration not stated) [ethyl 2-methylbutanoate] + CCCO
[1], x1 = 1
Conditions | mass density [kg/m3] | viscosity [mPa·s]
293.15 K | 869.73 | 0.831
303.15 K | 861.48 | 0.723
313.15 K | 853.41 | 0.635

CCCCCC(=O)OCC [ethyl hexanoate] + CO
[1], x1 = 1
Conditions | mass density [kg/m3] | viscosity [mPa·s]
293.15 K | 879.01 | 0.816
303.15 K | 869.31 | 0.704
313.15 K | 863.28 | 0.614

CCOC(=O)C(C)CC (configuration not stated) [ethyl 2-methylbutanoate] + CCO
[1], x1 = 1
Conditions | mass density [kg/m3] | viscosity [mPa·s]
293.15 K | 869.73 | 0.831
303.15 K | 861.48 | 0.723
313.15 K | 853.41 | 0.635

CCCCCC(=O)OCC [ethyl hexanoate] + CCCO
[1], x1 = 1
Conditions | mass density [kg/m3] | viscosity [mPa·s]
293.15 K | 879.01 | 0.816
303.15 K | 869.31 | 0.704
313.15 K | 863.28 | 0.614

CCCCCC(=O)OCC [ethyl hexanoate]
[2]
Conditions | mass density [kg/m3] | viscosity [mPa·s]
293.15 K | 879.01 | 0.816
303.15 K | 869.31 | 0.704
313.15 K | 863.28 | 0.614

CCO [ethanol] + CCOC(=O)C(C)CC
[1], x2 = 0
Conditions | mass density [kg/m3] | viscosity [mPa·s]
293.15 K | 788.24 | 1.16
303.15 K | 780.73 | 0.968
313.15 K | 771.98 | 0.81

CCO [ethanol] + CCCCCC(=O)OCC
[1], x2 = 0
Conditions | mass density [kg/m3] | viscosity [mPa·s]
293.15 K | 788.24 | 1.16
303.15 K | 780.73 | 0.968
313.15 K | 771.98 | 0.81

CO [methanol] + CCCCCC(=O)OCC
[1], x2 = 0
Conditions | mass density [kg/m3] | viscosity [mPa·s]
293.15 K | 791.08 | 0.577
303.15 K | 781.95 | 0.512
313.15 K | 772.01 | 0.447

CO [methanol]
[2]
Conditions | mass density [kg/m3] | viscosity [mPa·s]
293.15 K | 791.08 | 0.577
303.15 K | 781.95 | 0.512
313.15 K | 772.01 | 0.447

CCCCCC(=O)OCC [ethyl hexanoate] + CCO
[1], x1 = 1
Conditions | mass density [kg/m3] | viscosity [mPa·s]
293.15 K | 879.01 | 0.816
303.15 K | 869.31 | 0.704
313.15 K | 863.28 | 0.614

CCCO [propan-1-ol] + CCOC(=O)C(C)CC
[1], x2 = 0
Conditions | mass density [kg/m3] | viscosity [mPa·s]
293.15 K | 803.64 | 2.188
303.15 K | 795.48 | 1.713
313.15 K | 787.02 | 1.378

CCCO [propan-1-ol]
[2]
Conditions | mass density [kg/m3] | viscosity [mPa·s]
293.15 K | 803.64 | 2.188
303.15 K | 795.48 | 1.713
313.15 K | 787.02 | 1.378

CCOC(=O)C(C)CC (configuration not stated) [ethyl 2-methylbutanoate]
[2]
Conditions | mass density [kg/m3] | viscosity [mPa·s]
293.15 K | 869.73 | 0.831
303.15 K | 861.48 | 0.723
313.15 K | 853.41 | 0.635
